Reference: patent publication US20240309007A1, “CRYSTALLINE FORMS OF 3-{4-[(2R)-2-AMINOPROPOXY]PHENYL}-N-[(1R)- 1-(3-FLUOROPHENYL) ETHYL]IMIDAZO[1,2-B]PYRIDAZIN-6-AMINE AND SALTS THEREOF” (ANHEART THERAPEUTICS (HANGZHOU) CO., LTD., priority 2021, published 2024)
Converted amounts (≈) assume the structure as drawn. “Also recorded” adds a separate entry of the source.

Tests used:
Format in all cases: physicochemical
[1] = Solubility of the crystalline form in buffers, SGF, FaSSIF, FeSSIF and water at 37° C. (HPLC; XRPD of undissolved solid); conditions: for solubility at 2 h / solubility at 24 h: 37 °C, thermodynamic from solid
Description: (1) a KCl/HCl buffer solution with a pH of 1.0, (2) a potassium hydrogen phthalate buffer solution with a pH of 3.0, (3) a sodium acetate trihydrate buffer solution with a pH of 4.5, (4) a potassium dihydrogen phosphate buffer solution with a pH of 6.0, (5) a potassium dihydrogen phosphate buffer solution with a pH of 7.5, (6) SGF (simulated gastric fluid), (7) FaSSIF (fasted state simulated intestinal fluids, pH=6.5), (8) FeSSIF (fed state simulated intestinal fluids, pH=5.0), and (9) water. Each mixture was then stirred in a water bath at 37° C. After equilibrated for 2 hours and 24 hours, concentrations (mg/mL) of the crystal in the mixture were measured by HPLC and the undissolved solid was evaluated by XRPD.

[2] = Dynamic Vapor Sorption (DVS), hygroscopicity
Method: Dynamic Vapor Sorption (DVS) was performed by using Intrinsic DVS (Surface Measurement Systems, UK). A sample was weighed in an amount of 20-30 mg and was placed in a sample chamber. The measurement was performed at DMDT mode when the temperature of the sample chamber was maintained at 25±1° C.

[3] = Long-term stability test, 25° C./60% RH, three years; conditions: for Appearance / Assay (anhydrous and solvent free basis) / Individual unspecified impurity (Maximum) / Total impurities / Water content / deF-6051: 25° C. ± 2° C./60 ± 5% RH
Method: The long-term stability test of the crystalline form A of Compound 1 adipate was performed by storing a sample at 25°±2° C./[…] for three years.

[4] = Accelerated stability test, 40° C./75% RH, six months; conditions: for Appearance / Assay Adipic acid (potentiometric titration) / Assay DS-6051a (HPLC)/ (anhydrous and solvent free basis) / Related substances (UPLC) Total impurities / Water content (KF) / Related substances (UPLC) Unspecified individual impurity / Crystal form (XRPD): 40° C. ± 2° C./75 ± 5% RH; for Crystal form (XRPD): consistent with reference standard
Method: The accelerated stability test of the crystalline form A of Compound 1 adipate was performed by storing a sample at 40° C.±2° C./[…] for six months.

[5] = FaSSIF (fasted state simulated intestinal fluid), pH 6.5, fassif
[6] = FeSSIF (fed state simulated intestinal fluid), pH 5, fessif
[7] = KCl/HCl buffer, pH 1, simulated gastric fluid
[8] = SGF (simulated gastric fluid), 37° C.
[9] = SGF (simulated gastric fluid), simulated gastric fluid
[10] = potassium dihydrogen phosphate buffer pH 6.0, 37° C.
[11] = potassium dihydrogen phosphate buffer pH 7.5, 37° C.
[12] = potassium dihydrogen phosphate buffer, pH 6, aqueous buffer
[13] = potassium dihydrogen phosphate buffer, pH 7.5, aqueous buffer
[14] = potassium hydrogen phthalate buffer pH 3.0, 37° C.
[15] = potassium hydrogen phthalate buffer, pH 3, aqueous buffer
[16] = sodium acetate trihydrate buffer pH 4.5, 37° C.
[17] = sodium acetate trihydrate buffer, pH 4.5, aqueous buffer

In the case of `C[C@@H](N)COc1ccc(-c2cnc3ccc(N[C@H](C)c4cccc(F)c4)nn23)cc1` [crystalline form A of Compound 1 adipate, 3-{4-[(2R)-2-aminopropoxy]phenyl}-N-[(1R)-1-(3-fluorophenyl)ethyl]imidazo[1,2-b]pyridazin-6-amine], the solubility at 2 h [1, 5] is reported as 331 µg/mL (≈ 0.816 mM), the solubility at 24 h [1, 5] is reported as 225 µg/mL (≈ 0.555 mM) and the “XRPD of undissolved solid” value ([1]; FaSSIF (pH=6.5), 37° C.) is reported as “changed”. For the same compound, the “pH after 24 hours” value ([1]; FaSSIF (pH=6.5), 37° C.) was 5.008, the solubility at 2 h [1, 6] was 493 µg/mL (≈ 1.22 mM) and the solubility at 24 h [1, 6] was 143 µg/mL (≈ 0.353 mM). For the same compound, the “XRPD of undissolved solid” value ([1]; FeSSIF (pH=5.0), 37° C.) was “Form A”, the “pH after 24 hours” value ([1]; FeSSIF (pH=5.0), 37° C.) was 4.205 and the “XRPD of undissolved solid” value ([1]; KCl/HCl buffer pH 1.0, 37° C.) was “changed”. The “pH after 24 hours” value ([1]; KCl/HCl buffer pH 1.0, 37° C.) was 3.746, the solubility at 2 h [1, 7] was 20400 µg/mL (≈ 50.4 mM) and the solubility at 24 h [1, 7] was 17800 µg/mL (≈ 43.9 mM). For the same compound, the “XRPD of undissolved solid” value [1, 8] was “changed”, the “pH after 24 hours” value [1, 8] was 5.281 and the solubility at 2 h [1, 9] was 15600 µg/mL (≈ 38.5 mM). The solubility at 24 h [1, 9] was 16000 µg/mL (≈ 39.4 mM), the “solubility (in words)” value ([1]; pH 1) was “superior solubility” and the “XRPD of undissolved solid” value [1, 10] was “Form A”. For the same compound, the “pH after 24 hours” value [1, 10] was 5.055, the “XRPD of undissolved solid” value [1, 11] was “changed” and the “pH after 24 hours” value [1, 11] was 5.570. It also gave a solubility at 2 h [1, 12] of 2340 µg/mL (≈ 5.76 mM), a solubility at 24 h [1, 12] of 1700 µg/mL (≈ 4.2 mM) and a solubility at 2 h [1, 13] of 597 µg/mL (≈ 1.47 mM). For the same compound, the solubility at 24 h [1, 13] was 419 µg/mL (≈ 1.03 mM), the “XRPD of undissolved solid” value [1, 14] was “changed” and the “pH after 24 hours” value [1, 14] was 4.418. For the same compound, the solubility at 2 h [1, 15] was 1350 µg/mL (≈ 3.32 mM), the solubility at 24 h [1, 15] was 852 µg/mL (≈ 2.1 mM) and the “XRPD of undissolved solid” value [1, 16] was “Form A”. For the same compound, the “pH after 24 hours” value [1, 16] was 4.541, the solubility at 2 h [1, 17] was 2840 µg/mL (≈ 7 mM) and the solubility at 24 h [1, 17] was 2880 µg/mL (≈ 7.12 mM). For the same compound, the “XRPD of undissolved solid” value ([1]; water, 37° C.) was “Form A”, the “pH after 24 hours” value ([1]; water, 37° C.) was 5.115 and the solubility at 2 h ([1]; water) was 1610 µg/mL (≈ 3.96 mM). The solubility at 24 h ([1]; water) was 1410 µg/mL (≈ 3.48 mM), the “crystalline form (XRPD) of the sample before and after the DVS test” value [2] was “did not change” and the “weight increase (DVS)” value ([2]; at 80% RH, 25±1° C.) was 0.235%. For the same compound, the “hygroscopicity (in words)” value ([2]; from DVS weight increase at 80% RH) was “low hygroscopicity; also recorded: very low or nearly no hygroscopicity”, the “stability (in words)” value [3] was “superior stability” and the Appearance ([3]; 0 M) was “White”. For the same compound, the “Assay (anhydrous and solvent free basis)” value ([3]; 0 M) was 100.0%, the “Individual unspecified impurity (Maximum)” value ([3]; 0 M) was 0.09% and the Total impurities ([3]; 0 M) was 0.61%. The Water content ([3]; 0 M) was 0.07%, the deF-6051 ([3]; 0 M) was 0.46% and the Appearance ([3]; 3 M) was “White”. For the same compound, the “Assay (anhydrous and solvent free basis)” value ([3]; 3 M) was 100.0%, the “Individual unspecified impurity (Maximum)” value ([3]; 3 M) was 0.09% and the Total impurities ([3]; 3 M) was 0.61%. The Water content ([3]; 3 M) was 0.08%, the deF-6051 ([3]; 3 M) was 0.46% and the Appearance ([3]; 6 M) was “White”. The “Assay (anhydrous and solvent free basis)” value ([3]; 6 M) was 100.0%, the “Individual unspecified impurity (Maximum)” value ([3]; 6 M) was 0.09% and the Total impurities ([3]; 6 M) was 0.54%. For the same compound, the Water content ([3]; 6 M) was 0.11%, the deF-6051 ([3]; 6 M) was 0.45% and the Appearance ([3]; 9 M) was “White”. For the same compound, the “Assay (anhydrous and solvent free basis)” value ([3]; 9 M) was 99.9%, the “Individual unspecified impurity (Maximum)” value ([3]; 9 M) was 0.09% and the Total impurities ([3]; 9 M) was 0.60%. For the same compound, the Water content ([3]; 9 M) was 0.08%, the deF-6051 ([3]; 9 M) was 0.46% and the Appearance ([3]; 12 M) was “White”. For the same compound, the “Assay (anhydrous and solvent free basis)” value ([3]; 12 M) was 100.2%, the “Individual unspecified impurity (Maximum)” value ([3]; 12 M) was 0.09% and the Total impurities ([3]; 12 M) was 0.55%. The Water content ([3]; 12 M) was 0.09%, the deF-6051 ([3]; 12 M) was 0.46% and the Appearance ([3]; 18 M) was “White”. For the same compound, the “Assay (anhydrous and solvent free basis)” value ([3]; 18 M) was 100.2%, the “Individual unspecified impurity (Maximum)” value ([3]; 18 M) was 0.09% and the Total impurities ([3]; 18 M) was 0.55%. For the same compound, the Water content ([3]; 18 M) was 0.06%, the deF-6051 ([3]; 18 M) was 0.46% and the Appearance ([3]; 24 M) was “White”. For the same compound, the “Assay (anhydrous and solvent free basis)” value ([3]; 24 M) was 99.7%, the “Individual unspecified impurity (Maximum)” value ([3]; 24 M) was 0.09% and the Total impurities ([3]; 24 M) was 0.54%. For the same compound, the Water content ([3]; 24 M) was 0.07%, the deF-6051 ([3]; 24 M) was 0.45% and the Appearance ([3]; 36 M) was “White”. For the same compound, the “Assay (anhydrous and solvent free basis)” value ([3]; 36 M) was 100.0%, the “Individual unspecified impurity (Maximum)” value ([3]; 36 M) was 0.09% and the Total impurities ([3]; 36 M) was 0.53%. The Water content ([3]; 36 M) was 0.06%, the deF-6051 ([3]; 36 M) was 0.44% and the “time stable at room temperature in a sealed container” value ([3]; room temperature, sealed container) was “at least 36 months”. The “stability (in words)” value [4] was “superior stability”, the Appearance ([4]; 0 M) was “White” and the “Assay Adipic acid (potentiometric titration)” value (“Assay Adipic acid” below) ([4]; 0 M) was 26.2%. The “Assay DS-6051a (HPLC)/ (anhydrous and solvent free basis)” value ([4]; 0 M) was 99.5%, the “Related substances (UPLC) Total impurities” value ([4]; 0 M) was 0.05% and the “Water content (KF)” value ([4]; 0 M) was 0.2%. For the same compound, the “Related substances (UPLC) Unspecified individual impurity” value ([4]; 0 M, RRT1.48) was 0.05%, the “Crystal form (XRPD)” value ([4]; 0 M) was “conform” and the Appearance ([4]; 1 M) was “White”. The “Assay Adipic acid” value ([4]; 1 M) was 26.5%, the “Assay DS-6051a (HPLC)/ (anhydrous and solvent free basis)” value ([4]; 1 M) was 100.1% and the “Related substances (UPLC) Total impurities” value ([4]; 1 M) was under 0.05%. For the same compound, the “Related substances (UPLC) Unspecified individual impurity” value ([4]; 1 M) was under 0.05%, the “Water content (KF)” value ([4]; 1 M) was 0.1% and the “Crystal form (XRPD)” value ([4]; 1 M) was “conform”. For the same compound, the Appearance ([4]; 2 M) was “White”, the “Assay Adipic acid” value ([4]; 2 M) was 26.4% and the “Assay DS-6051a (HPLC)/ (anhydrous and solvent free basis)” value ([4]; 2 M) was 99.6%. The “Related substances (UPLC) Total impurities” value ([4]; 2 M) was under 0.05%, the “Related substances (UPLC) Unspecified individual impurity” value ([4]; 2 M) was under 0.05% and the “Water content (KF)” value ([4]; 2 M) was 0.1%. The “Crystal form (XRPD)” value ([4]; 2 M) was “conform”, the Appearance ([4]; 3 M) was “White” and the “Assay Adipic acid” value ([4]; 3 M) was 26.2%. For the same compound, the “Assay DS-6051a (HPLC)/ (anhydrous and solvent free basis)” value ([4]; 3 M) was 99.5%, the “Related substances (UPLC) Total impurities” value ([4]; 3 M) was under 0.05% and the “Related substances (UPLC) Unspecified individual impurity” value ([4]; 3 M) was under 0.05%. The “Water content (KF)” value ([4]; 3 M) was 0.1%, the “Crystal form (XRPD)” value ([4]; 3 M) was “conform” and the Appearance ([4]; 6 M) was “White”. The “Assay Adipic acid” value ([4]; 6 M) was 26.2%, the “Assay DS-6051a (HPLC)/ (anhydrous and solvent free basis)” value ([4]; 6 M) was 99.0% and the “Related substances (UPLC) Total impurities” value ([4]; 6 M) was under 0.05%. The “Related substances (UPLC) Unspecified individual impurity” value ([4]; 6 M) was under 0.05%, the “Water content (KF)” value ([4]; 6 M) was 0.1% and the “Crystal form (XRPD)” value ([4]; 6 M) was “conform”.
